Test results from US5409953A, “Isolation, structural elucidation and synthesis of novel antineoplastic substances denominated "combretastatins"” (Arizona Board of Regents acting on behalf of Arizona State …, priority 1992, dated 1995).
pIC50: −log10 of the molar value. ≈ marks a conversion by molar mass, not a printed value. Entries after “also recorded” stand apart in the source; their conditions may differ. Where two headings read alike, the source gives them in different places.

What was measured:
[1] = tested on: murine P388 lymphocytic leukemia (PS system); experiment: inhibition of PS cell line growth (Ed50); format: cell-based; conditions: for IC50: Mus musculus
[2] = tested on: tubulin; experiment: binding of [3H]colchicine to tubulin; conditions: Experiment II; for colchicine binding, % of control: 5 μM [3H]colchicine, competing drug at 5 μM, 10 minutes at 37° C.
Method: (§1) Incubation was for 10 minutes at 37° C.

[3] = tested on: tubulin; experiment: in vitro interactions with tubulin (overall comparison); format: biochemical
Method: (§2) The assembly reaction at 37° C. was followed turbidimetrically as described by Hamel et al, Biochem. Pharmacal., 32, p.
as §1

[4] = tested on: murine P388 lymphocytic leukemia (PS system); experiment: PS in vivo life extension; conditions: 2.75-11 mg/kg dose levels
[5] = tested on: tubulin; experiment: microtubule assembly (turbidimetric); format: biochemical; conditions: for pIC50: Experiment I; for inhibition of microtubule assembly / tubulin polymerization in words: comparison with reference agents
Method: as §2

[6] = tested on: NCI astrocytoma; experiment: NCI astrocytoma bioassay; format: cell-based
[7] = tested on: tubulin; conditions: cited from earlier work
[8] = read-out: concentration giving equivalent inhibition of microtubule assembly
[9] = read-out: ID50, drug concentration inhibiting the extent of microtubule assembly by 50%, 37° C., 1.5 mg/ml tubulin, 0.5 mg/ml microtubule-associated proteins

## COc1cc(CCc2ccc(OC)c(O)c2)cc(OC)c1 [3'-hydroxy-3,4',5-trimethoxy bibenzyl]
[1]; P388 (PS) cell line
  IC50: 1.7 µg/mL (≈ 5.9 µM)

## COc1cc(CCc2ccc(O)cc2)cc(OC)c1OC [4'-hydroxy-3,4,5-trimethoxy bibenzyl]
[1]; P388 (PS) cell line
  IC50: 0.25 µg/mL (≈ 0.867 µM)

## COc1cc(/C=C\c2ccc(OC)c(OC(C)=O)c2OC(C)=O)cc(OC)c1OC [Combretastatin A-1 d lacerate, 2', 3'-diacetoxy-4'-methoxy-Z-combretastatin A-1]
[1]; P388 (PS) cell line
  IC50: 2.7 µg/mL (≈ 6.48 µM)
[1]; PS cell line
  activity relative to parent natural product combretastatin A-1: three-fold less active

## COc1ccc(/C=C\c2cc(OC)c(OC)c(OC)c2)c(O)c1O [Combretastatin A-1]
[2]
  inhibition of binding of (3H)colchicine to tubulin in words: particularly potent
  colchicine binding, % of control: 2.2 % of control
[3]
  interactions with tubulin in words: more active than combretastatin B-1; also recorded: significantly more potent than the previously described combretastatin
[4]
  increase in life extension: 26-29%
[5]; [8]
  pIC50: 5.70
[5]
  inhibition of microtubule assembly / tubulin polymerization in words: more potent than combretastatin and the well known tubulin inhibitors colchicine and podophylotoxin
[5]; listed as combretastatins A-1
  inhibition of microtubule assembly / tubulin polymerization in words: comparable to that observed with podophyllotoxin and greater than that observed with colchicine and steganacin
[5]; complete inhibition
  concentration completely inhibiting microtubulin assembly in vitro: less than 1.5 μmolar
[1]; P388 (PS) cell line
  IC50: 0.99 µg/mL (≈ 2.98 µM)

## COc1ccc(/C=C\c2cc(OC)c3c(c2)OCO3)cc1O [Combretastatin A-2]
[1]; P388 (PS) cell line
  IC50: 0.027 µg/mL (≈ 0.0899 µM)

## COc1ccc(/C=C\c2cc(O)c(OC)c(OC)c2)cc1O [Combretastatin A-3]
[1]; P388 (PS) cell line
  IC50: 0.026 µg/mL (≈ 0.086 µM)

## COc1ccc(CCc2cc(OC)c(OC)c(OC)c2)c(O)c1O [Combretastatin B-1]
[2]
  inhibition of binding of (3H)colchicine to tubulin in words: particularly potent
  colchicine binding, % of control: 13 % of control
[3]
  interactions with tubulin in words: significantly more potent than the previously described combretastatin
[5]; [8]
  pIC50: 5.52
[5]
  inhibition of microtubule assembly / tubulin polymerization in words: comparable to that observed with podophyllotoxin and greater than that observed with colchicine and steganacin
[1]; P388 (PS) cell line
  IC50: 1.7 µg/mL (≈ 5.08 µM)

## COc1ccc(CCc2cc(O)c(OC)c(OC)c2)cc1O [Combretastatin B-2]
[1]; P388 (PS) cell line
  IC50: 0.32 µg/mL (≈ 1.05 µM)

## COc1cc(CCc2ccc(O)c(O)c2)cc(OC)c1OC [Combretastatin B-3]
[1]; P388 (PS) cell line
  IC50: 0.4 µg/mL (≈ 1.31 µM)

## COc1cc(CCc2ccc(O)c(O)c2)cc(OC)c1 [Combretastatin B-4]
[1]; P388 (PS) cell line
  IC50: 1.7 µg/mL (≈ 6.2 µM)

## COc1ccc(C[C@@H](O)c2cc(OC)c(OC)c(OC)c2)cc1O [Combretastatin, R(-)-1-(3,4,5-tri-methoxyphenyl)-2-(3'-hydroxy, 4'-methoxyphenyl)-ethanol]
[2]
  colchicine binding, % of control: 34 % of control
[5]; [8]
  pIC50: 4.96
[6]
  astrocyte reversal: pronounced astrocyte reversal
[7]
  mode of inhibition of binding of radiolabeled colchicine: competitive inhibitors

## COc1cc([C@@H]2c3cc4c(cc3[C@H](O)[C@H]3COC(=O)[C@H]23)OCO4)cc(OC)c1OC [Podophyllotoxin, reference compound]
[2]
  colchicine binding, % of control: 13 % of control
[5]; [9]
  pIC50: […]
[7]
  mode of inhibition of binding of radiolabeled colchicine: competitive inhibitors

## COc1cc2c(c(OC)c1OC)-c1cc3c(cc1C(OC(C)=O)[C@H]1COC(=O)[C@@H]1C2)OCO3 (stereo partly drawn) [Steganacin, reference compound]
[2]
  colchicine binding, % of control: 49 % of control
[5]; [9]
  pIC50: 5.22
[7]
  mode of inhibition of binding of radiolabeled colchicine: competitive inhibitors

## COc1cc(/C=C/c2ccc(OC)c(OC(C)=O)c2OC(C)=O)cc(OC)c1OC [trans-isomer counter part, 2',3'-diacetoxy-4'-methoxy-E-combretastatin A-1]
[1]; P388 (PS) cell line
  IC50: 12 µg/mL (≈ 28.8 µM)
  PS cell line activity in words: essentially inactive
